# Patent US20240279159A1, “HERBICIDAL ARYLCYCLOPENTENE CARBOXAMIDES” (BASF SE, priority 2021, published 2024)
# How the values were obtained:
# [1] = system: ECHCG; test: greenhouse herbicidal test, pre-emergence treatment; assay type: in vivo, Echinocloa crus-galli; settings: pre-emergence method, application rate 1,000 kg/ha; scale from 0 to 100
# Excerpt: (§1) The culture containers used were plastic flowerpots containing loamy sand with approximately 3.0% of humus as the substrate. The seeds of the test plants were sown separately for each species.
# (§2) For the pre-emergence treatment, the active ingredients, which had been suspended or emulsified in water, were applied directly after sowing by means of finely distributing nozzles. The containers were irrigated gently to promote germination and growth and subsequently covered with transparent plastic hoods until the test plants had rooted. This cover caused uniform germination of the test plants, unless this had been impaired by the active ingredients. For the post-emergence treatment, the test plants were first grown to a height of 3 to 15 cm, depending on the plant habit, and only then treated with the active ingredients which had been suspended or emulsified in water. For this purpose, the test plants were either sown directly and grown in the same containers, or they were first grown separately as seedlings and transplanted into the test containers a few days prior to treatment.
# (§3) Depending on the species, the test plants were kept at 10-25° C. or 20-35° C., respectively. The test period extended over 2 to 4 weeks. During this time, the test plants were tended, and their response to the individual treatments was evaluated.
# (§4) Evaluation was carried out using a scale from 0 to 100. […]
# [2] = system: SETFA; test: as above; assay type: in vivo, Setaria faberi; settings: pre-emergence method, application rate 1,000 kg/ha; scale from 0 to 100
# Excerpt: as §1, §2, §3, §4
# [3] = system: ALOMY; test: greenhouse herbicidal test, post-emergence treatment; assay type: in vivo, Alopercurus myosuroides; settings: post-emergence method, scale from 0 to 100
# Excerpt: as §1, §2, §3
# Evaluation was carried out using a scale from 0 to 100. 100 means no emergence of the test plants, or complete destruction of at least the aerial moieties, and 0 means no damage, or normal course of growth. A good herbicidal activity is given at values of 60 to 90 and a very good herbicidal activity is given at values of 90 to 100.
# The test plants used in the greenhouse experiments were of the following species: […]
# [4] = system: AMARE; test: as above; assay type: in vivo, Amaranthus retroflexus; settings: post-emergence method, scale from 0 to 100
# Excerpt: as §1, §2, §3, §4
# [5] = system: ABUTH; test: as above; assay type: in vivo, Abutilon theophrasti; settings: post-emergence method, application rate 0.250 kg/ha; scale from 0 to 100
# Excerpt: as §1, §2, §3, §4
# [6] = system: AMARE; test: greenhouse herbicidal test, pre-emergence treatment; assay type: in vivo, Amaranthus retroflexus; settings: pre-emergence method, application rate 0.250 kg/ha; scale from 0 to 100
# Excerpt: as §1, §2, §3, §4
# [7] = system: ECHCG; test: greenhouse herbicidal test, post-emergence treatment; assay type: in vivo, Echinocloa crus-galli; settings: post-emergence method, application rate 0.250 kg/ha; scale from 0 to 100
# Excerpt: as §1, §2, §3, §4
compound,measurement,setting,value
"COC(=O)C[C@H](C)NC(=O)C1(C)CC(c2cc(F)cc(F)c2)=CO1 (single isomer, unassigned) [I2]",herbicidal activity against ECHCG,[1],good (A good herbicidal activity is given at values of 60 to 90)
same,herbicidal activity against SETFA,[2],good (A good herbicidal activity is given at values of 60 to 90)
same,herbicidal activity against ALOMY,[3]; application rate 1.000 kg/ha,good (A good herbicidal activity is given at values of 60 to 90)
COC(=O)[C@@H]1C=C[C@H](NC(=O)C2(C)CC(c3cc(Cl)cc(Cl)c3)=CO2)C1 (relative stereo) [I6],herbicidal activity against ALOMY,[3]; application rate 0.250 kg/ha,very good (a very good herbicidal activity is given at values of 90 to 100)
COC(=O)C1CCC(NC(=O)C2(C)CC(c3cc(Cl)cc(Cl)c3)=CO2)C1 (stereo not shown) [I14],herbicidal activity against AMARE,[4]; application rate 0.250 kg/ha,good (A good herbicidal activity is given at values of 60 to 90)
same,herbicidal activity against ABUTH,[5],good (A good herbicidal activity is given at values of 60 to 90)
COC(=O)[C@@H]1C=C[C@H](NC(=O)C2(C(F)(F)F)CC(c3cc(F)cc(F)c3)=CO2)C1 (relative stereo) [I8],herbicidal activity against AMARE,[6],good (A good herbicidal activity is given at values of 60 to 90)
"COC(=O)C[C@H](C)NC(=O)C1(C)CC(c2cc(Cl)cc(Cl)c2)=CO1 (single isomer, unassigned) [I3]",herbicidal activity against AMARE,[4]; application rate 1.000 kg/ha,very good (a very good herbicidal activity is given at values of 90 to 100)
"COC(=O)[C@@H]1C=C[C@H](NC(=O)C2(C)CC=C(c3cc(F)cc(F)c3)C2=O)C1 (stereo partly drawn) [I111, methyl (1S,4R)-4-[[3-(3,5-difluorophenyl)-1-methyl-2-oxo-cyclopent-3-ene-1-carbonyl]amino]cyclopent-2-ene-1-carboxylate]",herbicidal activity against ECHCG,[7],good (A good herbicidal activity is given at values of 60 to 90)
"COC(=O)C[C@H](C)NC(=O)C1(C)CC(c2cc(F)cc(F)c2)=CO1 (single isomer, unassigned) [I1]",herbicidal activity against ALOMY,[3]; application rate 1.000 kg/ha,very good (a very good herbicidal activity is given at values of 90 to 100)
